In PubChem BioAssay AID2060888 (Molecular Pharmacology Branch, DTP, NCI, 2025):

Test system: 695427-040-R-J1-PDC complex spheroid viability
Assay: Anticancer human tumor 695427-040-R-J1-PDC patient-derived colon adenocarcinoma cell line growth inhibition [RAS]
Details: for viability, T/C: stronger effect = lower value; active means viability on the fitted dose curve at most 10% of control; inactive means the rest
In short: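 Multi-cell-type spheroids: tumor cells plus HUVEC endothelial cells and mesenchymal stem cells. RAS-pathway inhibitors were combined with targeted agents, each dosed in half-log steps down from clinical Cmax, or from 10 microM when Cmax was unknown.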

[1] = curve of first compound, second compound 0.000949 µM
[2] = curve of first compound, second compound 0.003 µM
[3] = curve of first compound, second compound 0.00949 µM
[4] = curve of first compound, second compound 0.03 µM
[5] = curve of first compound, second compound 0.0949 µM
[6] = curve of first compound, second compound 0.3 µM
[7] = second compound 0.000949 µM, first compound 0.0316 µM
[8] = second compound 0.000949 µM, first compound 0.1 µM
[9] = second compound 0.000949 µM, first compound 0.316 µM
[10] = second compound 0.000949 µM, first compound 1 µM
[11] = second compound 0.000949 µM, first compound 3.16 µM
[12] = second compound 0.000949 µM, first compound 10 µM
[13] = second compound 0.003 µM, first compound 0.0316 µM
[14] = second compound 0.003 µM, first compound 0.1 µM
[15] = second compound 0.003 µM, first compound 0.316 µM
[16] = second compound 0.003 µM, first compound 1 µM
[17] = second compound 0.003 µM, first compound 3.16 µM
[18] = second compound 0.003 µM, first compound 10 µM
[19] = second compound 0.00949 µM, first compound 0.0316 µM
[20] = second compound 0.00949 µM, first compound 0.1 µM
[21] = second compound 0.00949 µM, first compound 0.316 µM
[22] = second compound 0.00949 µM, first compound 1 µM
[23] = second compound 0.00949 µM, first compound 3.16 µM
[24] = second compound 0.00949 µM, first compound 10 µM
[25] = second compound 0.03 µM, first compound 0.0316 µM
[26] = second compound 0.03 µM, first compound 0.1 µM
[27] = second compound 0.03 µM, first compound 0.316 µM
[28] = second compound 0.03 µM, first compound 1 µM
[29] = second compound 0.03 µM, first compound 3.16 µM
[30] = second compound 0.03 µM, first compound 10 µM
[31] = second compound 0.0949 µM, first compound 0.0316 µM
[32] = second compound 0.0949 µM, first compound 0.1 µM
[33] = second compound 0.0949 µM, first compound 0.316 µM
[34] = second compound 0.0949 µM, first compound 1 µM
[35] = second compound 0.0949 µM, first compound 3.16 µM
[36] = second compound 0.0949 µM, first compound 10 µM
[37] = second compound 0.3 µM, first compound 0.0316 µM
[38] = second compound 0.3 µM, first compound 0.1 µM
[39] = second compound 0.3 µM, first compound 0.316 µM
[40] = second compound 0.3 µM, first compound 1 µM
[41] = second compound 0.3 µM, first compound 3.16 µM
[42] = second compound 0.3 µM, first compound 10 µM
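Further: viability read after seven days of drug exposure.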
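Wherever viability, T/C is given: 100% = DMSO vehicle control viability.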

C[C@@H](NC(=O)c1ncnc(N)c1Cl)c1ncc(C(=O)Nc2cc(C(F)(F)F)c(Cl)cn2)s1 + CCn1c(-c2cccnc2C(C)OC)c2c3cc(ccc31)N1CCOC(CC(NC(=O)C(C(C)C)N(C)C(=O)C3(F)CCN(C(=O)C#CC(C)(C)N(C)C)CC3)C(=O)N3CCCC(N3)C(=O)OCC(C)(C)C2)C1
inactive: viability, T/C [7] 86.3% | viability, T/C [8] 99.1% | viability, T/C [9] 92.7% | viability, T/C [10] 106% | viability, T/C [11] 96.8% | viability, T/C [12] 85.7% | viability, T/C [13] 82.2% | viability, T/C [14] 93.6% | viability, T/C [15] 113% | viability, T/C [16] 98.3% | viability, T/C [17] 99.2% | viability, T/C [18] 68.5% | viability, T/C [19] 96.3% | viability, T/C [20] 81.6% | viability, T/C [21] 105% | viability, T/C [22] 80.2% | viability, T/C [23] 102% | viability, T/C [24] 78.1% | viability, T/C [25] 81% | viability, T/C [26] 99% | viability, T/C [27] 115% | viability, T/C [28] 97.5% | viability, T/C [29] 104% | viability, T/C [30] 82.4% | viability, T/C [31] 67.9% | viability, T/C [32] 97.3% | viability, T/C [33] 96.6% | viability, T/C [34] 104% | viability, T/C [35] 89.8% | viability, T/C [36] 67.1% | viability, T/C [37] 78.8% | viability, T/C [38] 94.4% | viability, T/C [39] 94.7% | viability, T/C [40] 98% | viability, T/C [41] 97.8% | viability, T/C [42] 67.9%
> 10 µM: IC50 [1] | IC50 [2] | IC50 [3] | IC50 [4] | IC50 [5] | IC50 [6]

CC(=O)OC12COC1CC(O)C1(C)C(=O)C(O)C3=C(C)C(OC(=O)C(O)C(NC(=O)OC(C)(C)C)c4ccccc4)CC(O)(C(OC(=O)c4ccccc4)C21)C3(C)C (centres undefined) + CCn1c(-c2cccnc2C(C)OC)c2c3cc(ccc31)N1CCOC(CC(NC(=O)C(C(C)C)N(C)C(=O)C3(F)CCN(C(=O)C#CC(C)(C)N(C)C)CC3)C(=O)N3CCCC(N3)C(=O)OCC(C)(C)C2)C1
> 10 µM: IC50 [1] | IC50 [2] | IC50 [3] | IC50 [4] | IC50 [5] | IC50 [6]
inactive: viability, T/C [7] 81% | viability, T/C [8] 73.9% | viability, T/C [9] 76% | viability, T/C [10] 61.4% | viability, T/C [11] 65.3% | viability, T/C [12] 73.5% | viability, T/C [13] 95.7% | viability, T/C [14] 77.1% | viability, T/C [15] 61.1% | viability, T/C [16] 64.1% | viability, T/C [17] 70.8% | viability, T/C [18] 66.9% | viability, T/C [19] 107% | viability, T/C [20] 61% | viability, T/C [21] 67.4% | viability, T/C [22] 69.3% | viability, T/C [23] 78.5% | viability, T/C [24] 69% | viability, T/C [25] 83.6% | viability, T/C [26] 71.9% | viability, T/C [27] 61% | viability, T/C [28] 68.4% | viability, T/C [29] 78.8% | viability, T/C [30] 77% | viability, T/C [31] 77.7% | viability, T/C [32] 51.4% | viability, T/C [33] 67.1% | viability, T/C [34] 57.4% | viability, T/C [35] 76% | viability, T/C [36] 82.4% | viability, T/C [37] 76.8% | viability, T/C [38] 60.1% | viability, T/C [39] 68.1% | viability, T/C [40] 51.7% | viability, T/C [41] 43.9% | viability, T/C [42] 71.1%

CCn1c(-c2cccnc2C(C)OC)c2c3cc(ccc31)N1CCOC(CC(NC(=O)C(C(C)C)N(C)C(=O)C3(F)CCN(C(=O)C#CC(C)(C)N(C)C)CC3)C(=O)N3CCCC(N3)C(=O)OCC(C)(C)C2)C1 (centres undefined)
> 0.3 µM: IC50 (compound alone, run of 05/20/2024)
inactive: viability, T/C (compound 0.000949 µM) 94% [middle of 8 runs] | viability, T/C (compound 0.03 µM) 95.8% [middle of 8 runs] | viability, T/C (compound 0.0949 µM) 102% [middle of 8 runs]

NC1c2ccccc2OC12CCN(c1cnc3c(N4CCCc5ncccc54)n[nH]c3n1)CC2 (centres undefined)
inactive: viability, T/C (compound 0.0316 µM) 78.6% [middle of 4 runs] | viability, T/C (compound 0.1 µM) 64.9% [middle of 4 runs] | viability, T/C (compound 0.316 µM) 64.5% [middle of 4 runs] | viability, T/C (compound 1 µM) 55.7% [middle of 4 runs] | viability, T/C (compound 3.16 µM) 49.4% [middle of 4 runs] | viability, T/C (compound 10 µM) 43.5% [middle of 4 runs]
